Data on 14 compounds can be found in paper doi:10.1101/2023.07.12.548622v2 (biorxiv, 2023).

Experiment [1] addresses T1, hACKR3 (atypical chemokine receptor 3; CXCR7) (Homo sapiens, UniProt P25106). In words: [3H]VUF15485 displacement, HEK293T membranes. Type of experiment: binding. As to conditions: for pIC50: 5 nM [3H]VUF15485, 25 °C, 2 h.
For experiment [2], the target named is hACKR3 (atypical chemokine receptor 3; CXCR7) (Homo sapiens, UniProt P25106, E213Q). In words: homologous [3H]VUF15485 competition binding, HEK293T membranes.
hACKR3 (atypical chemokine receptor 3; CXCR7) (Homo sapiens, UniProt P25106, E213Q), sequence (P25106 whole entry E213Q): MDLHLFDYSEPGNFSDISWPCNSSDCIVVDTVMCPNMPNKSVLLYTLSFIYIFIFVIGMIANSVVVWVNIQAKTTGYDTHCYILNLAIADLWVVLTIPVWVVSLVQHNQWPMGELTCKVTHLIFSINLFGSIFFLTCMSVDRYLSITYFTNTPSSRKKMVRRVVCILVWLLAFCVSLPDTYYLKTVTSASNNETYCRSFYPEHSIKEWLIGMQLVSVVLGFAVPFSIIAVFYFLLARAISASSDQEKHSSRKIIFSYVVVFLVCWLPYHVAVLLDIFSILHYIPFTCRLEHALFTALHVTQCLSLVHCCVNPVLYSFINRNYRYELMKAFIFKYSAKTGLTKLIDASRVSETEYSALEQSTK
The target of experiment [3] is T1, hACKR3 (atypical chemokine receptor 3; CXCR7). The experiment is described as above.
Experiment [4] addresses hACKR3 (atypical chemokine receptor 3; CXCR7) (Homo sapiens, UniProt P25106, H121A). The experiment is described as above.
Experiment [5] concerns the target hACKR3 (atypical chemokine receptor 3; CXCR7) (Homo sapiens, UniProt P25106, S103D). The description is as above.
Experiment [6] addresses hACKR3 (atypical chemokine receptor 3; CXCR7) (Homo sapiens, UniProt P25106, D275N). Described as above.
Experiment [7] has as its target T1, hACKR3 (atypical chemokine receptor 3; CXCR7). In words: [3H]VUF15485 saturation binding, HEK293T membranes.
The target in experiment [8] is hACKR3 (atypical chemokine receptor 3; CXCR7) (Homo sapiens, UniProt P25106, Q301E). In words: homologous [3H]VUF15485 competition binding, HEK293T membranes.
hACKR3 (atypical chemokine receptor 3; CXCR7) (Homo sapiens, UniProt P25106, Q301E), sequence (P25106 whole entry Q301E): as the sequence (P25106 whole entry E213Q) above, with Q213E, Q301E counted along it
Experiment [9] has as its target hACKR3 (atypical chemokine receptor 3; CXCR7) (Homo sapiens, UniProt P25106, V217A). The description is as above.
Experiment [10] deals with T1, hACKR3 (atypical chemokine receptor 3; CXCR7). In words: BRET beta-arrestin2 recruitment, HEK293T. Type of experiment: cell-based. On the technique in general: Bioluminescence resonance energy transfer reports proximity on the nanometre scale.
Experiment [11] has the same target. In words: […]CXCL12 displacement, intact HEK293T cells. It counts as cell-based.
The target in the next experiment is mouse ACKR3 (mACKR3) (Mus musculus, UniProt P56485). Put plainly: NanoBiT beta-arrestin2 recruitment, HEK293T. It counts as cell-based. A general note: Arrestin recruitment assays detect the binding of arrestin to an activated receptor.
mouse ACKR3 (mACKR3), sequence (P56485 whole entry): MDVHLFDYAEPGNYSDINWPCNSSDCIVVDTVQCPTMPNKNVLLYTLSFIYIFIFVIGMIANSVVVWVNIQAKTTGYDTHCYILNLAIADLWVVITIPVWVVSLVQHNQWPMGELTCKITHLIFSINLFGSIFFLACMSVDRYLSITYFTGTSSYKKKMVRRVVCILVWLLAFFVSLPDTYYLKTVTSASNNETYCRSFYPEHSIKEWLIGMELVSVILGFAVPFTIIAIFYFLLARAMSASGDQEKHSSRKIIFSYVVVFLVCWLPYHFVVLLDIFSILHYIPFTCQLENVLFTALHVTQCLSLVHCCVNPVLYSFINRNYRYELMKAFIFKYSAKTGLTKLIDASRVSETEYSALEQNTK
For experiment [12], the target named is hACKR3 (atypical chemokine receptor 3; CXCR7) (Homo sapiens, UniProt P25106, H298A). Put plainly: homologous [3H]VUF15485 competition binding, HEK293T membranes.
hACKR3 (atypical chemokine receptor 3; CXCR7) (Homo sapiens, UniProt P25106, H298A), sequence (P25106 whole entry H298A): as the sequence (P25106 whole entry E213Q) above, with Q213E, H298A counted along it
In experiment [13] the target is hACKR3 (atypical chemokine receptor 3; CXCR7) (Homo sapiens, UniProt P25106, Y51A). The description is as above.
hACKR3 (atypical chemokine receptor 3; CXCR7) (Homo sapiens, UniProt P25106, Y51A), sequence (P25106 whole entry Y51A): as the sequence (P25106 whole entry E213Q) above, with Y51A, Q213E counted along it

A word on the pIC50: it is the negative decadic logarithm of the IC50, by convention in mol/L. As a reminder, the IC50 is the midpoint of a concentration-inhibition curve. Higher therefore signals weaker potency in that assay. What is called Ki is a dissociation constant, usually derived from enzyme kinetics or from competition with a known ligand. The term Kd denotes the free concentration of one partner at which half of the binding sites on the other are occupied at equilibrium, for simple one-to-one binding. Usually EC50 stands for the concentration needed to bring the measured effect to its halfway point.

Where only a bound is given, the exact number is not on record here.

T1 sequence (P25106 whole entry): as the sequence (P25106 whole entry E213Q) above, with Q213E counted along it
hACKR3 (atypical chemokine receptor 3; CXCR7) (Homo sapiens, UniProt P25106, H121A), sequence (P25106 whole entry H121A): as the sequence (P25106 whole entry E213Q) above, with H121A, Q213E counted along it
hACKR3 (atypical chemokine receptor 3; CXCR7) (Homo sapiens, UniProt P25106, V217A), sequence (P25106 whole entry V217A): as the sequence (P25106 whole entry E213Q) above, with Q213E, V217A counted along it
hACKR3 (atypical chemokine receptor 3; CXCR7) (Homo sapiens, UniProt P25106, D275N), sequence (P25106 whole entry D275N): as the sequence (P25106 whole entry E213Q) above, with Q213E, D275N counted along it
hACKR3 (atypical chemokine receptor 3; CXCR7) (Homo sapiens, UniProt P25106, S103D), sequence (P25106 whole entry S103D): as the sequence (P25106 whole entry E213Q) above, with S103D, Q213E counted along it

In experiment [1], VUF11403 [30 in Wijtmans et al., 2012a] had a pIC50 of 7.9 ± 0.1.
`CC1(C)[C@H]2CC=C(C[N+](C)(C)Cc3ccc(-c4ccccc4Br)cc3)[C@@H]1C2.[I-]` [38 in Wijtmans et al., 2012b, VUF11222] came in with a pIC50 in [1] of 5.8 ± 0.2.
On the same count and under the same terms, for VUF16771 [28 in Adlere et al., 2019] the value was 5.8 ± 0.1.
In experiment [1], `c1cc(CN2CCCNCCNCCCNCC2)ccc1CN1CCCNCCNCCCNCC1` [AMD3100] gave an IC50 of at least 100000 nM.
As for VUF16779 [22 in Adlere et al., 2019], the pIC50 in experiment [1] is 6.0 ± 0.1.
For `CC1(C)CN2C(CS/C(=N\C3CCCCC3)NC3CCCCC3)=CSC2=N1` [IT1t], in experiment [1], the 50% inhibitory concentration (IC50) was at least 100000 nM.
In turn, VUF16545 [1 in Uto-Konimi et al., 2013] came in with a pIC50 in [1] of 7.8 ± 0.1.
Consider `COc1cc(C(=O)N(CC[C@H]2CCCN2C)C/C(C)=C/c2ccccc2F)cc(OC)c1OC` [VUF15485, (R,E)-N-(3-(2-fluorophenyl)-2-methylallyl)-3,4,5-trimethoxy-N-(2-(1-methylpyrrolidin-2-yl)ethyl)benzamide], for which the Ki in experiment [2] is 10.5 nM; in experiment [3] it was 24.5 nM; in experiment [4], 55 nM; in experiment [5], 95.5 nM; in experiment [6] it was 18.6 nM; in [8], 17 nM. For the same compound, the Ki is 38 nM in [9], 44.7 nM in experiment [12] and 49 nM in experiment [13]. The same compound came in with a Kd in [7] of 16 ± 2.4 nM. Further, the EC50 in [10] was 25.1 nM; at mouse ACKR3 (mACKR3), 20 nM. Besides, the IC50 in [11] was 5.01 nM.
Turning to `CCNC(=O)c1cnc(N2CCN(C3CCN(Cc4ccc(Cl)cc4)CC3)C(CC)C2)c(Cl)c1` (stereo not shown) [VUF11211], the pIC50 in [1] is reported as 4.7 ± 0.2.
On to `COc1cc(C(=O)N(CCC2CCCN2C)C/C(C)=C/c2ccccc2F)cc(OC)c1OC` (stereo not shown) [VUF11207], for which a half-maximal effect in experiment [10] (EC50) was put at 31.6 nM. The compound also showed an IC50 in experiment [11] of 10 nM.
As to VUF10990 [10q in Wijtmans et al., 2011], the pIC50 in experiment [1] came to 5.9 ± 0.1.
Compound `CC1(C)[C@H]2CC=C(C[N+](C)(C)Cc3ccc(-c4ccccc4I)cc3)[C@@H]1C2.[I-]` [39 in Wijtmans et al., 2012b, VUF11418] displayed a pIC50 in [1] of 5.9 ± 0.3.
For the compound `COc1cc(C(=O)N(CC[C@@H]2CCCN2C)C/C(C)=C/c2ccccc2F)cc(OC)c1OC` [VUF13744], in experiment [10], the EC50 was 39.8 nM. Further, the IC50 in experiment [11] was 20 nM.
Regarding `Oc1ccc(CN2CCC(CNCc3ccccc3)CC2)cc1` [9 in Adlere et al., 2019, VUF16774], in experiment [1], the IC50 is 10000 nM.
